Measured values from patent publication US20260028348A1, “MODULATORS OF TNF-ALPHA ACTIVITY” (Forward Therapeutics, Inc., priority 2023, published 2026).

The compounds below were run on HEK Blue™ TNFα reporter cells (assay: TNF-α Induced HEK Blue Cellular Assay). Conditions: TNF-α stimulated HEK Blue TNFα reporter cells, 24 hrs, secreted alkaline phosphatase (QUANTI-Blue, 620 nm).
Format: cell-based
Experimental: Test articles were diluted in DMSO and serially diluted into 384 well assay plate (Corning 3765), at final concentrations ranging from […] to 0.5 nM. HEK Blue™ TNFα reporter cells were added at a final density of 10,000 cell per well in assay media [DMEM (Gibco, cat #21063-029), 10% fetal bovine serum (ExcelBio, cat #FND500), 1% Penicillin-Streptomycin (Solarbio, cat #P1400-100]. TNF-α (R&D 210-TA-020/CF) was then added to the assay plate at a final concentration of […]. This plate was then incubated for 24 hrs at 37° C. and 5% CO2. Secreted alkaline phosphatase expression was then measured using QUANTI-Blue™(Invivogen), according to manufacturer instructions and read on an Envision microplate reader at 620 nm.
Inhibition data for test compound over a range of concentration was plotted as percentage inhibition of the test compound (100%=maximum inhibition). IC50 values were determined after correcting for background [(sample read-mean of low control)/(mean of high control-mean of low control)] whereby the low control is DMSO without stimulation and high control is DMSO with stimulation. The IC50 is defined as the concentration of test compound which produces […] and was quantified using the 4 parameter logistic equation to fit the data.

`[2H]C([2H])([2H])N1C(=O)c2cccc(OC(F)F)c2[C@H]2C[C@@H]1c1nc3cc(F)c(-c4cnc5c(c4)OC[C@]5(C)N)cc3n12` (single isomer, unassigned) [Example 62] and `[2H]C([2H])([2H])N1C(=O)c2cccc(OC(F)F)c2[C@H]2C[C@@H]1c1nc3cc(F)c(-c4cnc5c(c4)CC[C@]5(C)N)cc3n12` (single isomer, unassigned) [Example 25] cannot be ordered by IC50: < 100 nM for the first, < 100 nM for the second.

`CN1C(=O)c2cccc(OC(F)F)c2[C@H]2C[C@@H]1c1nc3ccc(-c4ccc5c(c4)CC[C@H]5N)cc3n12` [Example 9, (1R,11R)-5-[(1R)-1-amino-2,3-dihydro-1H-inden-5-yl]-18-(difluoromethoxy)-12-methyl-2,9,12-triazapentacyclo[9.8.1.0^{2,10}.0^{3,8}.0^{14,19}]icosa-3(8),4,6,9,14(19),15,17-heptaen-13-one] and `CN1C(=O)c2cccc(OC(F)F)c2[C@H]2C[C@@H]1c1nc3ccc(-c4ccc5c(c4)OCC[C@@H]5N)cc3n12` [Example 10, (1R,11R)-5-[(4S)-4-amino-3,4-dihydro-2H-1-benzopyran-7-yl]-18-(difluoromethoxy)-12-methyl-2,9,12-triazapentacyclo[9.8.1.0^{2,10}.0^{3,8}.0^{14,19}]icosa-3(8),4,6,9,14(19),15,17-heptaen-13-one] cannot be ordered by IC50: < 100 nM for the first, < 100 nM for the second.

`[2H]C([2H])([2H])N1C(=O)c2cccc(OC(F)F)c2[C@H]2C[C@@H]1c1nc3ccc(-c4cnc5c(c4)OC[C@]5(C)N)cc3n12` (single isomer, unassigned) [Example 55] and `CN1C(=O)c2cccc(OC(F)F)c2[C@H]2C[C@@H]1c1nc3ccc(-c4cnc5c(c4)OC[C@]5(C)N)cc3n12` (single isomer, unassigned) [Example 57] cannot be ordered by IC50: < 100 nM for the first, < 100 nM for the second.

`[2H]C([2H])([2H])N1C(=O)c2cccc(OC(F)F)c2[C@H]2C[C@@H]1c1nc3ccc(-c4cnc5c(c4)OCC[C@]5(C)O)cc3n12` (single isomer, unassigned) [Example 34] and `[2H]C([2H])([2H])N1C(=O)c2cccc(OC(F)F)c2[C@H]2C[C@@H]1c1nc3ccc(-c4cnc5c(c4)OCC[C@@]5(C)O)cc3n12` (single isomer, unassigned) [Example 35] cannot be ordered by IC50: < 100 nM for the first, < 100 nM for the second.

Compared with `[2H]C([2H])([2H])N1C(=O)c2cccc(OC(F)F)c2[C@H]2C[C@@H]1c1nc3ccc(-c4cnc5c(c4)COC[C@]5(C)O)cc3n12` (single isomer, unassigned) [Example 38], `[2H]C([2H])([2H])N1C(=O)c2cccc(OC(F)F)c2[C@H]2C[C@@H]1c1nc3ccc(-c4cnc5c(c4)CC[C@]5(C)O)cc3n12` (single isomer, unassigned) [Example 32] is lower in IC50: 10000 to 30000 nM for the first, < 100 nM for the second. The second is the more potent here.

`[2H]C([2H])([2H])N1C(=O)c2cccc(OC(F)F)c2[C@H]2C[C@@H]1c1nc3ccc(-c4cnc5c(c4)OCCC5O)cc3n12` (stereo partly drawn) [Example 48, (7R,14R)-1-(difluoromethoxy)-11-(4-hydroxy-3,4-dihydro-2H-pyrano[3,2-b]pyridin-7-yl)-6-(methyl-d3)-6,7-dihydro-7,14-methanobenzo[f]benzo[4,5]imidazo[1,2-a][1,4]diazocin-5(14H)-one] and `[2H]C([2H])([2H])N1C(=O)c2cccc(OC(F)F)c2[C@H]2C[C@@H]1c1nc3ccc(-c4cnc5c(c4)OCC[C@@H]5N)cc3n12` [Example 30, (7R,14R)-11-((S)-4-amino-3,4-dihydro-2H-pyrano[3,2-b]pyridin-7-yl)-1-(difluoromethoxy)-6-(methyl-d3)-6,7-dihydro-7,14-methanobenzo[f]benzo[4,5]imidazo[1,2-a][1,4]diazocin-5(14H)-one] cannot be ordered by IC50: < 100 nM for the first, < 100 nM for the second.

`[2H]C([2H])([2H])N1C(=O)c2cccc(OC(F)F)c2[C@H]2C[C@@H]1c1nc3ccc(-c4cnc5c(c4)CC[C@@]5(C)N)cc3n12` (single isomer, unassigned) [Example 29] and `CN1C(=O)c2cccc(OC(F)F)c2[C@H]2C[C@@H]1c1nc3ccc(-c4cnc5c(c4)CC[C@@]5(C)N)cc3n12` (single isomer, unassigned) [Example 22] cannot be ordered by IC50: < 100 nM for the first, < 100 nM for the second.

`CN1C(=O)c2cccc(OC(F)F)c2[C@H]2C[C@@H]1c1nc3cc(F)c(-c4cnc5c(c4)CCC5(C)N)cc3n12` (stereo partly drawn) [Example 27, (1R,11R)-5-{7-amino-7-methyl-5H,6H-cyclopenta[b]pyridin-3-yl}-18-(difluoromethoxy)-6-fluoro-12-methyl-2,9,12-triazapentacyclo[9.8.1.0^{2,10}.0^{3,8}.0^{14,19}]icosa-3(8),4,6,9,14(19),15,17-heptaen-13-one; formic acid] and `[2H]C([2H])([2H])N1C(=O)c2cccc(OC(F)F)c2[C@H]2C[C@@H]1c1nc3cc(F)c(-c4cnc5c(c4)CC[C@@]5(C)N)cc3n12` (single isomer, unassigned) [Example 26] cannot be ordered by IC50: < 100 nM for the first, < 100 nM for the second.

First: [2H]C([2H])([2H])N1C(=O)c2cccc(OC(F)F)c2[C@H]2C[C@@H]1c1nc3ccc(-c4cnc5c(c4)CC[C@@]5(C)O)c(F)c3n12 (single isomer, unassigned) [Example 49]
Second: [2H]C([2H])([2H])N1C(=O)c2cccc(OC(F)F)c2[C@H]2C[C@@H]1c1nc3ccc(-c4cnc5c(c4)OCC[C@@]5(C)O)c(F)c3n12 (single isomer, unassigned) [Example 51]
The IC50 of the first is higher: 100 to 1000 nM for the first, < 100 nM for the second. The second is the more potent here.

`CN1C(=O)c2cccc(OC(F)F)c2[C@H]2C[C@@H]1c1nc3ccc(-c4cnc5c(c4)CC[C@]5(C)O)cc3n12` (single isomer, unassigned) [Example 12] and `CC1(O)CCc2cc(-c3ccc4nc5n(c4c3)[C@@H]3C[C@H]5NC(=O)c4cccc(OC(F)F)c43)cnc21` (stereo partly drawn) [Example 3, (1R,11R)-18-(difluoromethoxy)-5-{7-hydroxy-7-methyl-5H,6H-cyclopenta[b]pyridin-3-yl}-2,9,12-triazapentacyclo[9.8.1.0^{2,10}.0^{3,8}.0^{14,19}]icosa-3(8),4,6,9,14(19),15,17-heptaen-13-one] cannot be ordered by IC50: < 100 nM for the first, < 100 nM for the second.

First: [2H]C([2H])([2H])N1C(=O)c2cccc(OC(F)F)c2[C@H]2C[C@@H]1c1nc3ccc(-c4cnc5c(c4)CC[C@]5(C)O)nc3n12 (single isomer, unassigned) [Example 68]
Second: [2H]C([2H])([2H])N1C(=O)c2cccc(OC(F)F)c2[C@H]2C[C@@H]1c1nc3ccc(-c4cnc5c(c4)OC[C@@]5(C)O)nc3n12 (single isomer, unassigned) [Example 63]
The IC50 of the first is higher: 10000 to 30000 nM for the first, 100 to 1000 nM for the second. The second is the more potent here.

`CN1C(=O)c2cccc(OC(F)F)c2[C@H]2C[C@@H]1c1nc3ccc(-c4cnc5c(c4)CC[C@H]5N)cc3n12` (single isomer, unassigned) [Example 17] and `CN1C(=O)c2cccc(OC(F)F)c2[C@H]2C[C@@H]1c1nc3ccc(-c4cnc5c(c4)CC[C@@H]5N)cc3n12` (single isomer, unassigned) [Example 16] cannot be ordered by IC50: < 100 nM for the first, < 100 nM for the second.

`CN1C(=O)c2cccc(OC(F)F)c2[C@H]2C[C@@H]1c1nc3ccc(-c4ccc5c(c4)NC(=O)C5(C)N)cc3n12` (stereo partly drawn) [Example 31, (7R,14R)-11-(3-amino-3-methyl-2-oxoindolin-6-yl)-1-(difluoromethoxy)-6-methyl-6,7-dihydro-7,14-methanobenzo[f]benzo[4,5]imidazo[1,2-a][1,4]diazocin-5(14H)-one] and `CN1C(=O)c2cccc(OC(F)F)c2[C@H]2C[C@@H]1c1nc3ccc(-c4ccc5c(c4)OCCC5(C)N)cc3n12` (stereo partly drawn) [Example 24, (1R,11R)-5-(4-amino-4-methyl-2,3-dihydro-1-benzopyran-7-yl)-18-(difluoromethoxy)-12-methyl-2,9,12-triazapentacyclo[9.8.1.0^{2,10}.0^{3,8}.0^{14,19}]icosa-3(8),4,6,9,14(19),15,17-heptaen-13-one] cannot be ordered by IC50: < 100 nM for the first, < 100 nM for the second.

First: CN1C(=O)c2cccc(OC(F)F)c2[C@H]2C[C@@H]1c1nc3ccc(-c4cnc5c(c4)OC[C@@]5(C)N)cc3n12 (single isomer, unassigned) [Example 58]
Second: [2H]C([2H])([2H])N1C(=O)c2cccc(OC(F)F)c2[C@H]2C[C@@H]1c1nc3ccc(-c4cnc5c(c4)OC[C@@]5(C)N)nc3n12 (single isomer, unassigned) [Example 59]
The IC50 of the first is lower: < 100 nM for the first, 10000 to 30000 nM for the second.

`N[C@H]1CCc2cc(-c3ccc4nc5n(c4c3)[C@@H]3C[C@H]5NC(=O)c4cccc(OC(F)F)c43)cc(F)c21` [Example 13, (1R,11R)-5-[(1S)-1-amino-7-fluoro-2,3-dihydro-1H-inden-5-yl]-18-(difluoromethoxy)-2,9,12-triazapentacyclo[9.8.1.0^{2,10}.0^{3,8}.0^{14,19}]icosa-3(8),4,6,9,14(19),15,17-heptaen-13-one] and `N[C@H]1CCc2cc(-c3ccc4nc5n(c4c3)[C@@H]3C[C@H]5NC(=O)c4cccc(OC(F)F)c43)ccc21` [Example 6, (1R,11R)-5-[(1S)-1-amino-2,3-dihydro-1H-inden-5-yl]-18-(difluoromethoxy)-2,9,12-triazapentacyclo[9.8.1.0^{2,10}.0^{3,8}.0^{14,19}]icosa-3(8),4,6,9,14(19),15,17-heptaen-13-one] cannot be ordered by IC50: < 100 nM for the first, < 100 nM for the second.

`CN1C(=O)c2cccc(OC(F)F)c2[C@H]2C[C@@H]1c1nc3ccc(-c4cnc5c(c4)CNC5=O)cc3n12` [Example 18, (1R,11R)-18-(difluoromethoxy)-12-methyl-5-{7-oxo-5H,6H-pyrrolo[3,4-b]pyridin-3-yl}-2,9,12-triazapentacyclo[9.8.1.0^{2,10}.0^{3,8}.0^{14,19}]icosa-3(8),4,6,9,14(19),15,17-heptaen-13-one] gave an IC50 of 100 to 1000 nM.
